Key:
Experiment in all cases: Kinobeads elution with test compound, mouse brain lysate, MS
Assay type in all cases: binding
Conditions in all cases: kinase released from kinobeads by specific elution
[1] = molecular target: AAK1 (Mus musculus, UniProt Q3UHJ0)
Procedure: (§1) This example illustrates competitive elution of proteins bound to kinobeads with non-modified test compounds (see particularly the fourth aspect of the invention). The kinobeads (as described in example 1) were contacted with mouse brains lysate, bound proteins were eluted with various test compounds and the released proteins were analysed by mass spectrometry.
(§2) The kinobeads were contacted with mouse brain lysate under conditions that allow the binding of the proteins in the lysate to the ligands. The binding conditions were close to physiological by choosing suitable buffer conditions preserving the function of the proteins. After removing non-captured proteins through a gentle washing procedure the bound proteins were contacted with a test compound for protein elution.
(§3) Various test compounds (see section 2.7) were used to release bound proteins following these steps:
(§4) 1. Resuspend beads with bound proteins (section 2.4) in 1×DP buffer/0.2% NP-40 as 1:3 slurry (volume/volume). 2. Transfer 20 μl the 1:3 slurry into MoBiTech columns (equivalent to 5 μl of beads). 3. Place the column into an Eppendorf tube and centrifuge it for 15 seconds at 800 rpm at 4° C. Close columns with lower lid. 4. Add 10 μl elution buffer containing 1.0 mM of the test compound (concentration ranges of 0.1 to 1.0 mM are suitable). As a control use elution buffer containing 2% DMSO or 2% DMF dependent on the solvent used for dissolving the test compound. Close column with upper lid. 5. Incubate for 30 minutes at 4° C. in an Eppendorf incubator at 700 rpm. 6. Open column (first top, then bottom), put column back into siliconized tube (SafeSeal Microcentrifuge Tubes, cat. no 11270, Sorenson BioScience, Inc.). To harvest the eluate centrifuge 2 minutes at 2.000 rpm in table top centrifuge at room temperature. The typical volume of the eluate is approximately 15 μl. 7. Add 5 μl 4× NuPAGE SDS Sample Buffer (Invitrogen, NP0007) containing 100 mM DTT (DTT has to be added just prior to use). 8. Incubate for 30 minutes at 50° C. 9. Add 1/10 volume of 200 mg/ml iodoacetamide, incubate for 30 min at room temperature, protect from light. This reaction leads to the alkylation of cysteines for mass spectrometry. 10. Before loading samples onto the gel, centrifuge samples for 5 minutes at 15.000 rpm in order to remove precipitates. 11. For protein separation apply 10 μl sample to NuPAGE 4-12% Bis-Tris gel (Invitrogen, NPO335). 2.6 Preparation of Stock Solutions used in this Protocol
(§5) Search criteria varied depending on which mass spectrometer was used for the analysis.

[2] = molecular target: T1, MAP2K1 (Mus musculus, UniProt P31938)
T1 construct: from tissue; host or cells: mouse brain
Procedure: as §1, §2, §3, §4, §5

[3] = molecular target: EphA4 (Mus musculus, UniProt Q03137)
Procedure: as §1, §2, §3, §4, §5

[4] = system: T2, RSK1 (Mus musculus)
T2 construct: from tissue; host or cells: mouse brain
Procedure: as §1, §2, §3, §4, §5

[5] = molecular target: T3, JNK3 (Mus musculus, UniProt Q61831)
T3 construct: from tissue; host or cells: mouse brain
Procedure: as §1, §2, §3, §4, §5

[6] = molecular target: T4, PYK2 (Mus musculus, UniProt Q9QVP9)
T4 construct: from tissue; host or cells: mouse brain
Procedure: as §1, §2, §3, §4, §5

[7] = molecular target: T5, FYN (Mus musculus, UniProt P39688)
T5 construct: […]; from tissue; host or cells: mouse brain
Procedure: as §1, §2, §3, §4, §5

[8] = molecular target: T6, SRC (Mus musculus, UniProt P05480)
T6 construct: from tissue; host or cells: mouse brain
Procedure: as §1, §2, §3, §4, §5

[9] = molecular target: T7, RSK3 (Mus musculus, UniProt P18653)
T7 construct: from tissue; host or cells: mouse brain
Procedure: as §1, §2, §3, §4, §5

[10] = system: YESps
Procedure: as §1, §2, §3, §4, §5

[11] = molecular target: T8, JNK1 (Mus musculus, UniProt Q91Y86)
T8 construct: from tissue; host or cells: mouse brain
Procedure: as §1, §2, §3, §4, §5

[12] = molecular target: CaMKK2 (Mus musculus, UniProt Q8C078)
Procedure: as §1, §2, §3, §4, §5

[13] = molecular target: T9, GSK3B (Mus musculus, UniProt Q9WV60)
T9 construct: from tissue; host or cells: mouse brain
Text: (§6) This example illustrates competitive elution of proteins bound to kinobeads with non-modified test compounds (see particularly the fourth aspect of the invention).
as §2, §3
as §4, with “Open column (first top, then bottom), put column back into siliconized tube (SafeSeal Microcentrifuge Tubes, cat. no 11270, Sorenson BioScience, Inc.).” left out, “For protein separation apply 10 μl sample to NuPAGE 4-12% Bis-Tris gel (Invitrogen, NPO335).” left out
as §5

[14] = molecular target: CaMK2g (Mus musculus, UniProt Q923T9)
Text: as §6, §2, §3
as §4, with “Open column (first top, then bottom), put column back into siliconized tube (SafeSeal Microcentrifuge Tubes, cat. no 11270, Sorenson BioScience, Inc.).” left out, “For protein separation apply 10 μl sample to NuPAGE 4-12% Bis-Tris gel (Invitrogen, NPO335).” left out
as §5

[15] = molecular target: T10, JNK2 (Mus musculus, UniProt Q9WTU6)
T10 construct: from tissue; host or cells: mouse brain
Procedure: as §1, §2, §3, §4, §5

[16] = molecular target: FAK (Mus musculus, UniProt P34152)
Procedure: as §1, §2, §3, §4, §5

T6 sequence (P05480 whole entry): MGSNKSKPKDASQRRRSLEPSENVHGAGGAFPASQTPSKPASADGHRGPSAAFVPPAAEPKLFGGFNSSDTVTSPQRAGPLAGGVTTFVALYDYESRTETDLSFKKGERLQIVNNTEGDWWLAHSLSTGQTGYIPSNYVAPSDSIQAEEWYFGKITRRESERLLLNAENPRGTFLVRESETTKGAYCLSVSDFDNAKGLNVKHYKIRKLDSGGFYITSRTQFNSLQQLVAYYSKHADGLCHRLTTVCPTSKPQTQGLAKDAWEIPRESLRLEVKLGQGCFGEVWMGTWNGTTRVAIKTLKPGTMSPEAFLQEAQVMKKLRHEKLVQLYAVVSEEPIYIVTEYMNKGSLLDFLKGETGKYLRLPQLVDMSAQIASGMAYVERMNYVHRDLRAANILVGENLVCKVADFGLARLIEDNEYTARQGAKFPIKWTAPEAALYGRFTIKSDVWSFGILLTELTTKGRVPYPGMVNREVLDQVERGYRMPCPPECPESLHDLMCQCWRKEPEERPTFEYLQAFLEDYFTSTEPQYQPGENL
T7 sequence (P18653 whole entry): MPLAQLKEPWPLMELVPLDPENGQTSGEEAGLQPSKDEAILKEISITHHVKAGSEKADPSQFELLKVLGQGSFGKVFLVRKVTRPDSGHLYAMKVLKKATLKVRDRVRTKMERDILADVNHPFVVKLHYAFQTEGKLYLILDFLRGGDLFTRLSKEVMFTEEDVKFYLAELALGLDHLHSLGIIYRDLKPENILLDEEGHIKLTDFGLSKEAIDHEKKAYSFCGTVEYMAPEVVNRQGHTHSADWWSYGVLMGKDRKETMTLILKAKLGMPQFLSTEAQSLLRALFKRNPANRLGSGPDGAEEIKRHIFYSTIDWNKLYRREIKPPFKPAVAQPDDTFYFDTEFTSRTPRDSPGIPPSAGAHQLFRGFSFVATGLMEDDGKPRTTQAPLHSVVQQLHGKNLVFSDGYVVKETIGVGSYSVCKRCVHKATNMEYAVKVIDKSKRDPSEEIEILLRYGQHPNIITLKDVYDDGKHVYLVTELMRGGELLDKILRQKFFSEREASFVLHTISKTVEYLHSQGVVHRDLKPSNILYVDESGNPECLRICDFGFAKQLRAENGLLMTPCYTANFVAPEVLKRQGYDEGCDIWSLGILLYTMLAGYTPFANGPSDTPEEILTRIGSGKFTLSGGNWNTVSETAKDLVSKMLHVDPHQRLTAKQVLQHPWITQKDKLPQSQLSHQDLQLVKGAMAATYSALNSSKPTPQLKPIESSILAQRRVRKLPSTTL
T1 sequence (P31938 whole entry): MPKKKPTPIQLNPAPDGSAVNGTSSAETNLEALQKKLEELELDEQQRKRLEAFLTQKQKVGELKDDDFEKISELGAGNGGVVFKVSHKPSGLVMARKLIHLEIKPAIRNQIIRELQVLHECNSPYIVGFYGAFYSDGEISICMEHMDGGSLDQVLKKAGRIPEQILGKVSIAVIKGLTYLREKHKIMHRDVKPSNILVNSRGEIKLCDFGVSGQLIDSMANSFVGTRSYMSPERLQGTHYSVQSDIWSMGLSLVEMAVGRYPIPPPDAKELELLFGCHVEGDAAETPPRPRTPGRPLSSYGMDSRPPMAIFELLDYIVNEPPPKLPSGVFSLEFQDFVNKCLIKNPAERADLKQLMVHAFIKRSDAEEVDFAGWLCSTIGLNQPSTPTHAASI
T3 sequence (Q61831 whole entry): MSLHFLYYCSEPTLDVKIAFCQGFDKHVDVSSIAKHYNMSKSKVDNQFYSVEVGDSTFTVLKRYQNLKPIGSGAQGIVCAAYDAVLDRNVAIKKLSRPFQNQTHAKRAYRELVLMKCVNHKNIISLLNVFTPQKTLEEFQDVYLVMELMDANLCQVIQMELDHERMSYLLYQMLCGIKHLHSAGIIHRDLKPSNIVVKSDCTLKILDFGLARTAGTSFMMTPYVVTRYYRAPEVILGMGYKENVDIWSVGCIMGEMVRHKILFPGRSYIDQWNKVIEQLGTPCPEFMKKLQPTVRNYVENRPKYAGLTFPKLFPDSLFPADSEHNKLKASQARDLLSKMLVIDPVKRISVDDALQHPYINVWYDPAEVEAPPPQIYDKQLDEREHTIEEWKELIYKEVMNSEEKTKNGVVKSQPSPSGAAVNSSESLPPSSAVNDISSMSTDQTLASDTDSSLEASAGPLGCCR
T9 sequence (Q9WV60 whole entry): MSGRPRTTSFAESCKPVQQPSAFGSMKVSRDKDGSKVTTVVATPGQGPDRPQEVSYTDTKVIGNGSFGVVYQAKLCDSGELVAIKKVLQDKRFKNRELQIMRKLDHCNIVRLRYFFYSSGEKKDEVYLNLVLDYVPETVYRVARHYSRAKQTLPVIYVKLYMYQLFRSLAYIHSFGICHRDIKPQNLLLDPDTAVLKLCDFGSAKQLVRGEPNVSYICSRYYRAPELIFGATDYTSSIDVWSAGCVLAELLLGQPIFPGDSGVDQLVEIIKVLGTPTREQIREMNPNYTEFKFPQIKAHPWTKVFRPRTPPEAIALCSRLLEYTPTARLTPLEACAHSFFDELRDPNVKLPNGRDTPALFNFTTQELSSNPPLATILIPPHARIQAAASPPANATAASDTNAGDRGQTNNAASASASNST
Chain of CaMKK2 (Q8C078 whole entry): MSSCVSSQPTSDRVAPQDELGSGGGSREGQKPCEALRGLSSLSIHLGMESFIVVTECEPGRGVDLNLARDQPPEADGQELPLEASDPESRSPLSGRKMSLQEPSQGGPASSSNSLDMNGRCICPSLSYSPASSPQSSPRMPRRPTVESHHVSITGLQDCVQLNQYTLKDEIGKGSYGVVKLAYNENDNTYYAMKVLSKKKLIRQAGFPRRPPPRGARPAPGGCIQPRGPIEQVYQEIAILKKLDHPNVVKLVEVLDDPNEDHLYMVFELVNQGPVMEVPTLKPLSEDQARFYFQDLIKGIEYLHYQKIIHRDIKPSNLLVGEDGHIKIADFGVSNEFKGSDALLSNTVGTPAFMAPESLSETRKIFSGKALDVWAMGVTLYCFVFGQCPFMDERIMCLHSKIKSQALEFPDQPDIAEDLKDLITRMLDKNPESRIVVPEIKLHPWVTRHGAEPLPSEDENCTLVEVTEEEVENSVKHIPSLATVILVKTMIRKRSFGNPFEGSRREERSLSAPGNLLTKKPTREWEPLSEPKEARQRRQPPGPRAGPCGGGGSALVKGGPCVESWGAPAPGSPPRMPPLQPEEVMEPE
T10 sequence (Q9WTU6 whole entry): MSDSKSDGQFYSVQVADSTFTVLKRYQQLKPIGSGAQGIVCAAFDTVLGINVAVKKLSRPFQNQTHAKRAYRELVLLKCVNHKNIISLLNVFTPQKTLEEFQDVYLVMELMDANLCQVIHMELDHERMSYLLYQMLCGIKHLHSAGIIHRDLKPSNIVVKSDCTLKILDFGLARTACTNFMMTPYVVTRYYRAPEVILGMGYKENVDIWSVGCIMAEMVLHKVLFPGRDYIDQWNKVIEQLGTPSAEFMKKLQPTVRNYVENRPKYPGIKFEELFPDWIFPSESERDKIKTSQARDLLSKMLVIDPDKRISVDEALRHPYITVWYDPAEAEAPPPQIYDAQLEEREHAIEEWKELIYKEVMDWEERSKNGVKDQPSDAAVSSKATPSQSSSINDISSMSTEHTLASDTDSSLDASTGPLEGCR
Chain of FAK (P34152 whole entry): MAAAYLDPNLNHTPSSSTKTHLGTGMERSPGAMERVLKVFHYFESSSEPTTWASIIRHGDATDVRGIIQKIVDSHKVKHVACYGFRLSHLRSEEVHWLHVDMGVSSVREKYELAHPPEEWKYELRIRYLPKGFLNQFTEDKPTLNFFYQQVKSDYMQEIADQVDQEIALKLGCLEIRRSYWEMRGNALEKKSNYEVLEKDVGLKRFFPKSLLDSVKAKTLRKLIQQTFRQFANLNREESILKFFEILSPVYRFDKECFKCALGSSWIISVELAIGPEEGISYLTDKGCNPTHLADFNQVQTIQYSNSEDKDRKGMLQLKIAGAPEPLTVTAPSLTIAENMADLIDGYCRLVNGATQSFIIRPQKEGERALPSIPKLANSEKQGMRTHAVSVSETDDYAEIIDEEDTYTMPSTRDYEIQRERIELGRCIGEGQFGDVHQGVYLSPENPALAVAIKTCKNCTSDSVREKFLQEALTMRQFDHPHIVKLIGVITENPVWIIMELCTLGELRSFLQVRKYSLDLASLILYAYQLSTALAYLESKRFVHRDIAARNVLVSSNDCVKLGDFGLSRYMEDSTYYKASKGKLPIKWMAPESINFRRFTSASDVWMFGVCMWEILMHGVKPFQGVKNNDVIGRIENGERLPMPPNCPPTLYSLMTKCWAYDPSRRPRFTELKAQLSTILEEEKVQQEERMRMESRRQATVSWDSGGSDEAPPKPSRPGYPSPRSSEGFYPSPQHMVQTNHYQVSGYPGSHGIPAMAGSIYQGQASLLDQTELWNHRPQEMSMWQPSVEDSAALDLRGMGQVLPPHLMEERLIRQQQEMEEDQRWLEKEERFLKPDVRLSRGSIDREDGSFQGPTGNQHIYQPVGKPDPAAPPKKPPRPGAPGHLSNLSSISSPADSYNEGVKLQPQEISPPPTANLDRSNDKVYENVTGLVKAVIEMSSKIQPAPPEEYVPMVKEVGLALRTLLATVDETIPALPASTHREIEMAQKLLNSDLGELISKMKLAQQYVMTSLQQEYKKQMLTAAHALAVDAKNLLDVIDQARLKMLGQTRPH
T8 sequence (Q91Y86 whole entry): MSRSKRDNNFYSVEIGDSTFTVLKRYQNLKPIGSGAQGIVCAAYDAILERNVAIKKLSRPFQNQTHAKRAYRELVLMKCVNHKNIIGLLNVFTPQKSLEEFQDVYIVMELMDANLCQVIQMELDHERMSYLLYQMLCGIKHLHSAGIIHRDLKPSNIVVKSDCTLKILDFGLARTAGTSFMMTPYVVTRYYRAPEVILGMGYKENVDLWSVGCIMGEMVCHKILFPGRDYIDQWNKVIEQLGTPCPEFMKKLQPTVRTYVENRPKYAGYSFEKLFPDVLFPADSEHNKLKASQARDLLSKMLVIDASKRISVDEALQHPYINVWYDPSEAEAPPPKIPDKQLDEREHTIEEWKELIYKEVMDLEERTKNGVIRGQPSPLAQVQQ

| Compound | mass spectrometry score, AAK1 [1] | number of identified peptides, AAK1 [1] | mass spectrometry score, EphA4 [3] | number of identified peptides, EphA4 [3] | mass spectrometry score, RSK1 [4] | number of identified peptides, RSK1 [4] | mass spectrometry score, JNK3 [5] | number of identified peptides, JNK3 [5] | mass spectrometry score, PYK2 [6] | number of identified peptides, PYK2 [6] | mass spectrometry score, FYN [7] | number of identified peptides, FYN [7] | mass spectrometry score, SRC [8] | number of identified peptides, SRC [8] | number of identified peptides, RSK3 [9] | mass spectrometry score, JNK1 [11] | number of identified peptides, JNK1 [11] | mass spectrometry score, CaMKK2 [12] | number of identified peptides, CaMKK2 [12] | number of identified peptides, GSK3B [13] | further results |
| --- | --- | --- | --- | --- | --- | --- | --- | --- | --- | --- | --- | --- | --- | --- | --- | --- | --- | --- | --- | --- | --- |
| CNC1CC2OC(C)(C1OC)n1c3ccccc3c3c4c(c5c6ccccc6n2c5c31)C(=O)NC4 (centres unmarked) [CZC9280] | 777 | 44 | 332 | 11 | 1634 | 47 | 363 | 10 | 1978 | 82 | 314 | 6 | 546 | 13 | 21 | 457 | 16 | 282 | 10 | 59 | mass spectrometry score, MAP2K1 [2]: 49; number of identified peptides, MAP2K1 [2]: 2; mass spectrometry score, YESps [10]: 480; number of identified peptides, YESps [10]: 12; number of identified peptides, CaMK2g [14]: 25 |
| CC(C)[C@H](CO)Nc1nc(Nc2ccc(C(=O)O)c(Cl)c2)c2ncn(C(C)C)c2n1 [Purvalanol B, reference compound] | 1036 | 51 | 1702 | 37 | 1177 | 32 | 284 | 7 | 1909 | 48 | 268 | 6 | 544 | 13 | 11 | 311 | 10 | 465 | 9 | 30 | mass spectrometry score, MAP2K1 [2]: 78; number of identified peptides, MAP2K1 [2]: 2; mass spectrometry score, JNK2 [15]: 277; number of identified peptides, JNK2 [15]: 7; mass spectrometry score, FAK [16]: 269; number of identified peptides, FAK [16]: 6; mass spectrometry score, YESps [10]: 304; number of identified peptides, YESps [10]: 7; mass spectrometry score, GSK3B [13]: 1037 |
| CCCCCCCCCCCCOS(=O)(=O)[O-].[Na+] [SDS] | 240 | 32 | 727 | 33 | 825 | 45 | 447 | 27 | 809 | 39 | 407 | 17 | 419 | 25 | 6 | 389 | 47 | 338 | 10 | 72 | mass spectrometry score, MAP2K1 [2]: 90; number of identified peptides, MAP2K1 [2]: 4; mass spectrometry score, JNK2 [15]: 369; number of identified peptides, JNK2 [15]: 20; mass spectrometry score, FAK [16]: 160; number of identified peptides, FAK [16]: 6; mass spectrometry score, YESps [10]: 236; number of identified peptides, YESps [10]: 13; mass spectrometry score, GSK3B [13]: 763; mass spectrometry score, CaMK2g [14]: 379; number of identified peptides, CaMK2g [14]: 42 |

Second part, led by results:

| mass spectrometry score, AAK1 [1] | number of identified peptides, AAK1 [1] | mass spectrometry score, EphA4 [3] | number of identified peptides, EphA4 [3] | mass spectrometry score, RSK1 [4] | number of identified peptides, RSK1 [4] | mass spectrometry score, JNK3 [5] | number of identified peptides, JNK3 [5] | mass spectrometry score, PYK2 [6] | number of identified peptides, PYK2 [6] | mass spectrometry score, FYN [7] | number of identified peptides, FYN [7] | mass spectrometry score, SRC [8] | number of identified peptides, SRC [8] | number of identified peptides, RSK3 [9] | mass spectrometry score, JNK1 [11] | number of identified peptides, JNK1 [11] | mass spectrometry score, CaMKK2 [12] | number of identified peptides, CaMKK2 [12] | number of identified peptides, GSK3B [13] | Compound | further results |
| --- | --- | --- | --- | --- | --- | --- | --- | --- | --- | --- | --- | --- | --- | --- | --- | --- | --- | --- | --- | --- | --- |
| 718 | 35 | 138 | 3 | 312 | 9 | 642 | 23 | 1228 | 58 |  |  |  |  |  | 590 | 48 | 522 | 12 | 26 | NCc1ccc(Nc2ncc(F)c(Nc3ccccc3)n2)cc1 [CZC00008004] | mass spectrometry score, JNK2 [15]: 662; number of identified peptides, JNK2 [15]: 18; mass spectrometry score, FAK [16]: 257; number of identified peptides, FAK [16]: 8; mass spectrometry score, YESps [10]: 110; number of identified peptides, YESps [10]: 3; mass spectrometry score, GSK3B [13]: 881; mass spectrometry score, CaMK2g [14]: 527; number of identified peptides, CaMK2g [14]: 27 |
| 582 | 35 | 1233 | 32 | 626 | 19 | 782 | 49 | 1401 | 42 | 279 | 6 | 351 | 9 | 12 | 448 | 17 | 101 | 3 | 19 | Cn1c(=O)c(-c2c(Cl)cccc2Cl)cc2cnc(Nc3ccc(CN)cc3)cc21 [CZC7324] | mass spectrometry score, JNK2 [15]: 702; number of identified peptides, JNK2 [15]: 21; mass spectrometry score, FAK [16]: 322; number of identified peptides, FAK [16]: 10; mass spectrometry score, GSK3B [13]: 789 |

From patent US20090238808A1, “Process for the identification of novel enzyme interacting compounds” (priority 2005, published 2009)
